In the NIST ThermoML archive (doi:10.1016/j.fluid.2013.02.001):
Numbers after ± are expanded uncertainties.

Conditions: Crystal; Phase equilibration

O=C([O-])CCP(=O)(O)c1ccccc1.[Na+] [monosodium 3-(hydroxyphenylphosphinyl)propanoate]
Normal melting temperature: 231 ± 0.7 °C
